Source: ChEMBL document CHEMBL1909046, “DrugMatrix in vitro pharmacology data”

Key:
[1] = DRUGMATRIX: beta-Lactamase enzyme inhibition (substrate: Nitrocefin); design: species or system Bacillus cereus; conditions: Not Active = under 50% inhibition at 10 µM
Cannabinoid receptor 1 = Cannabinoid receptor 1 (Homo sapiens, UniProt P21554); type: cell membranes, Chem-1, Membrane; conditions: chem-1; also: in other assays of this panel Not Active means under 50% inhibition at 10 µM
D(3) dopamine receptor = D(3) dopamine receptor (Homo sapiens, UniProt P35462); assay: DRUGMATRIX: Dopamine D3 radioligand binding (ligand: [3H] Spiperone); type: cell membranes, CHO, Membrane; conditions: for Ki: read-out: Ki
Sequence of D(3) dopamine receptor (P35462 whole entry): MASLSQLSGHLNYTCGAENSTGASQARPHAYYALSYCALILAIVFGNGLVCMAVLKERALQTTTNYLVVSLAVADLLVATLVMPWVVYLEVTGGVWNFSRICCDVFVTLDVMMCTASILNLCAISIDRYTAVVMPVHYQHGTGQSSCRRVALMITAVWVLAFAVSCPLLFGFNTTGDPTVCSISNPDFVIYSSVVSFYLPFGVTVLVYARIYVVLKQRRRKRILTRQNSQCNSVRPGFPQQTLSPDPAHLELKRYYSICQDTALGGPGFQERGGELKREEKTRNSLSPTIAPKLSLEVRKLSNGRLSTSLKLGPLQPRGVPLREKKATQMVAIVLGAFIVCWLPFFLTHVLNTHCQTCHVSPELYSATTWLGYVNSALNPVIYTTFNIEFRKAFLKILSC

Histamine H2 receptor = Histamine H2 receptor (Homo sapiens, UniProt P25021); type: cell membranes, CHO-K1, Membrane; also: in other assays of this panel Not Active means under 50% inhibition at 10 µM
Sequence of Histamine H2 receptor (P25021 whole entry): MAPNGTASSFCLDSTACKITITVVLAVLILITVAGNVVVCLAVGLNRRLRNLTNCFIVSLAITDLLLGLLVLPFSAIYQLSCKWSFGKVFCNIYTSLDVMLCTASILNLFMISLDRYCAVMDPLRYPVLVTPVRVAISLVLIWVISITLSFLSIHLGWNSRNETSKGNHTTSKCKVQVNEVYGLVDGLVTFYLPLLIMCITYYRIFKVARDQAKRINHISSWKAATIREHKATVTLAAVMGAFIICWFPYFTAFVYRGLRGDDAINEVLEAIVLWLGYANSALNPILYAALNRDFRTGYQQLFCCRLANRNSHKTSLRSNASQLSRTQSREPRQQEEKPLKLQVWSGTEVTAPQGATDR

[2] = target: Mitogen-activated protein kinase 1 (Homo sapiens, UniProt P28482); assay: DRUGMATRIX: Protein Serine/Threonine Kinase, ERK2 enzyme inhibition (substrate: Myelin Basic Protein); design: species or system Escherichia coli; conditions: Not Active = under 50% inhibition at 10 µM
Sequence of Mitogen-activated protein kinase 1 (P28482 whole entry): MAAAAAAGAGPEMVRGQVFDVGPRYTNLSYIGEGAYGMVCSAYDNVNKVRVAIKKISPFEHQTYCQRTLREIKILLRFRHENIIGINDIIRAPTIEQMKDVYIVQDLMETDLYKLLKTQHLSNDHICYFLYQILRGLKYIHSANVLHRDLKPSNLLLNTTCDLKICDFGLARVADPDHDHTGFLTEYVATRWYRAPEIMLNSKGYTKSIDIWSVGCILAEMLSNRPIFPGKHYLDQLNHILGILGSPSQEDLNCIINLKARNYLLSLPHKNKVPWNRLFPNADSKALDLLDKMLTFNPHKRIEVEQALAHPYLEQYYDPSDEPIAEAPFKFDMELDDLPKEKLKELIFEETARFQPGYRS

Adenosine receptor A3 = target: T1, Adenosine receptor A3 (Homo sapiens, UniProt P0DMS8); type: cell membranes, CHO-K1, Membrane; conditions: cho-k1;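 also: radioligand binding assay with AB-MECA serving as the labeled ligand; in other assays of this panel Not Active means under 50% inhibition at 10 µM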
T1 sequence (P0DMS8 whole entry): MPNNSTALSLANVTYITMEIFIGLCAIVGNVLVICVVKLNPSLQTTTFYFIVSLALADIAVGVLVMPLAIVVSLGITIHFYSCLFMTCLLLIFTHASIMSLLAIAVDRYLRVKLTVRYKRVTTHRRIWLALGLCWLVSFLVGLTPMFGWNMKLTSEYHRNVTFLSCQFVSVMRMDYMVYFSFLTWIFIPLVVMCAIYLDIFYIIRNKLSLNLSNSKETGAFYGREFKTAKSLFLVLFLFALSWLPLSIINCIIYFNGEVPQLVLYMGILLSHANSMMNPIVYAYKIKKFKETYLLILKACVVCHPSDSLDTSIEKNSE

Cytochrome P450 2C19 = Cytochrome P450 2C19 (Homo sapiens, UniProt P33261); conditions: bti-tn-5b1-4; also: in other assays of this panel Not Active means under 50% inhibition at 10 µM
Sequence of Cytochrome P450 2C19 (P33261 whole entry): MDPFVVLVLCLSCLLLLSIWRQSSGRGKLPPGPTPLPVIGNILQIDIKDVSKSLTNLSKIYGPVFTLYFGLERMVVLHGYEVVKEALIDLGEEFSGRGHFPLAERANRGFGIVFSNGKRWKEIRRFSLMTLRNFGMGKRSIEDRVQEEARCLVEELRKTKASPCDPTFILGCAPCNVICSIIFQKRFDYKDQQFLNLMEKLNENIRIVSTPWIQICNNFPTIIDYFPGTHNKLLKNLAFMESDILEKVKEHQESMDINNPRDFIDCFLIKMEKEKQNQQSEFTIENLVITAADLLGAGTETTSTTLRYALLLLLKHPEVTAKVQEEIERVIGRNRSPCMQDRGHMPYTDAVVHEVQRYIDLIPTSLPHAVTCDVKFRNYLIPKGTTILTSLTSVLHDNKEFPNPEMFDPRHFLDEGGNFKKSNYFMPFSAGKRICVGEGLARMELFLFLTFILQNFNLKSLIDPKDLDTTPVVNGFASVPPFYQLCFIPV

Sequence of Cannabinoid receptor 1 (P21554 whole entry): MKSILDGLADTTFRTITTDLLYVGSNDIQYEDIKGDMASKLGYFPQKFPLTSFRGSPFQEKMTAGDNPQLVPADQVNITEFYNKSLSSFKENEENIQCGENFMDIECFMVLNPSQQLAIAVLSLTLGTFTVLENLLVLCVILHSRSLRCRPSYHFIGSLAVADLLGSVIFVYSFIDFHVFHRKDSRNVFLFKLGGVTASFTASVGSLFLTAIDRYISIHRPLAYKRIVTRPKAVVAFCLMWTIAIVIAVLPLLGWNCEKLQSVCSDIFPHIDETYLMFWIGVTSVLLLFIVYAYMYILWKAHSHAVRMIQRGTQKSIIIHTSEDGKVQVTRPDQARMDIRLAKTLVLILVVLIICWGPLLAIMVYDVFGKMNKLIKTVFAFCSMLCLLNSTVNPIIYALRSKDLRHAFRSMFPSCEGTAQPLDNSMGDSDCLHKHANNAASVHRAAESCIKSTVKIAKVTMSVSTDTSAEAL

SMILES	IC50 [1]	Ki [1]	IC50 (Cannabinoid receptor 1)	IC50 (D(3) dopamine receptor; cho)	IC50 (Histamine H2 receptor; cho-k1)	IC50 [2]	IC50 (Adenosine receptor A3)	IC50 (Cytochrome P450 2C19)	Ki (Cytochrome P450 2C19)	IC50 (D(3) dopamine receptor; read-out: IC50) [nM]	Ki (D(3) dopamine receptor) [nM]	IC50 (Histamine H2 receptor; read-out: IC50) [µM]	Ki (Histamine H2 receptor; read-out: Ki) [µM]
C[C@H]1COc2c(N3CCN(C)CC3)c(F)cc3c(=O)c(C(=O)O)cn1c23.C[C@H]1COc2c(N3CCN(C)CC3)c(F)cc3c(=O)c(C(=O)O)cn1c23.O [LEVOFLOXACIN]	Not Active	Not Active	Not Active	Not Active	Not Active	Not Active	Not Active	Not Active	Not Active	–	–	–	–
COc1ccnc(C[S+]([O-])c2nc3ccc(OC(F)F)cc3[nH]2)c1OC (stereo unspecified) [PANTOPRAZOLE]	Not Active	Not Active	Not Active	Not Active	Not Active	Not Active	Not Active	Not Active	Not Active	–	–	–	–
CCCCC1=NC2(CCCC2)C(=O)N1Cc1ccc(-c2ccccc2-c2nnn[nH]2)cc1 [IRBESARTAN]	Not Active	Not Active	Not Active	Not Active	Not Active	Not Active	Not Active	Not Active	Not Active	–	–	–	–
COC(=O)Nc1nc2cc(C(=O)c3ccc(F)cc3)ccc2[nH]1 [FLUBENDAZOLE]	Not Active	Not Active	Not Active	Not Active	Not Active	Not Active	Not Active	Not Active	Not Active	–	–	–	–
Cc1ccc(C)c(OCCCC(C)(C)C(=O)O)c1 [GEMFIBROZIL]	Not Active	Not Active	Not Active	Not Active	Not Active	Not Active	Not Active	Not Active	Not Active	–	–	–	–
C[N+](C)(C)C[C@H](O)CC(=O)[O-] [LEVOCARNITINE]	Not Active	Not Active	Not Active	Not Active	Not Active	Not Active	Not Active	Not Active	Not Active	–	–	–	–
CNC1=Nc2ccc(Cl)cc2C(c2ccccc2)=[N+]([O-])C1 [CHLORDIAZEPOXIDE]	Not Active	Not Active	Not Active	Not Active	Not Active	Not Active	Not Active	Not Active	Not Active	–	–	–	–
CC(O)COC[C@H]1O[C@@H]2O[C@H]3[C@H](O)[C@@H](O)[C@@H](O[C@H]4[C@H](O)[C@@H](O)[C@@H](O[C@H]5[C@H](O)[C@@H](O)[C@@H](O[C@H]6[C@H](O)[C@@H](O)[C@@H](O[C@H]7[C@H](O)[C@@H](O)[C@@H](O[C@H]8[C@H](O)[C@@H](O)[C@@H](O[C@H]1[C@H](O)[C@H]2O)O[C@@H]8COCC(C)O)O[C@@H]7COCC(C)O)O[C@@H]6COCC(C)O)O[C@@H]5COCC(C)O)O[C@@H]4COCC(C)O)O[C@@H]3COCC(C)O (stereo partly drawn) [2-HYDROXYPROPYL-BETA-CYCLODEXTRIN]	Not Active	Not Active	Not Active	Not Active	Not Active	Not Active	Not Active	Not Active	Not Active	–	–	–	–
C[C@]12CC[C@@H]3c4ccc(O)cc4CC[C@H]3[C@@H]1C[C@@H](O)[C@@H]2O [ESTRIOL]	Not Active	Not Active	Not Active	Not Active	Not Active	Not Active	Not Active	Not Active	Not Active	–	–	–	–
O=C(O)P(=O)(O)O [FOSCARNET]	Not Active	Not Active	Not Active	Not Active	Not Active	Not Active	Not Active	Not Active	Not Active	–	–	–	–
CC1=NN(c2ccccc2)C(=O)C1 [EDARAVONE]	Not Active	Not Active	Not Active	Not Active	Not Active	Not Active	Not Active	Not Active	Not Active	–	–	–	–
CCCNC(C)C(=O)Nc1ccccc1C (stereo unspecified) [PRILOCAINE]	Not Active	Not Active	Not Active	Not Active	Not Active	Not Active	Not Active	Not Active	Not Active	–	–	–	–
C[C@H]1O[C@H](O[C@H]2[C@H](O)[C@@H](O)[C@@H](O[C@H]3[C@H](O)[C@@H](O)C(O)O[C@@H]3CO)O[C@@H]2CO)[C@H](O)[C@@H](O)[C@@H]1N[C@H]1C=C(CO)[C@@H](O)[C@H](O)[C@H]1O (stereo partly specified) [ACARBOSE]	Not Active	Not Active	Not Active	Not Active	Not Active	Not Active	Not Active	Not Active	Not Active	–	–	–	–
CN(C)C(=N)NC(=N)N [METFORMIN]	Not Active	Not Active	Not Active	Not Active	Not Active	Not Active	Not Active	Not Active	Not Active	–	–	–	–
CCc1ccc(CCOc2ccc(CC3SC(=O)NC3=O)cc2)nc1 (stereo unspecified) [PIOGLITAZONE]	Not Active	Not Active	Not Active	Not Active	Not Active	Not Active	Not Active	Not Active	Not Active	–	–	–	–
CN1CCN(C(c2ccccc2)c2ccccc2)CC1 [CYCLIZINE]	Not Active	Not Active	Not Active	–	Not Active	Not Active	Not Active	Not Active	Not Active	2990	1020	–	–
Cn1c(=O)c2c(ncn2C)n(C)c1=O [CAFFEINE]	Not Active	Not Active	Not Active	Not Active	Not Active	Not Active	Not Active	Not Active	Not Active	–	–	–	–
COc1cc(OC)c(C(=O)CCCN2CCCC2)c(OC)c1 [BUFLOMEDIL]	Not Active	Not Active	Not Active	Not Active	Not Active	Not Active	Not Active	Not Active	Not Active	–	–	–	–
C[C@]12CC[C@H]3[C@@H](CCC4=CC(=O)CC[C@@H]43)[C@@H]1CC[C@@H]2O [NANDROLONE]	Not Active	Not Active	Not Active	Not Active	Not Active	Not Active	Not Active	Not Active	Not Active	–	–	–	–
CS(=O)(=O)Nc1ccc([N+](=O)[O-])cc1Oc1ccccc1 [NIMESULIDE]	Not Active	Not Active	Not Active	Not Active	Not Active	Not Active	Not Active	Not Active	Not Active	–	–	–	–
CN1CCC(=C2c3ccccc3CC(=O)c3sccc32)CC1 [KETOTIFEN]	Not Active	Not Active	Not Active	–	–	Not Active	Not Active	Not Active	Not Active	1960	667	4.13	4.06
NC(=O)N1c2ccccc2CC(=O)c2ccccc21 [OXCARBAZEPINE]	Not Active	Not Active	Not Active	Not Active	Not Active	Not Active	Not Active	Not Active	Not Active	–	–	–	–
